pIC50: −log10 of the molar value. Several values for one entry are separate records, joined by “and”; a condition that tells them apart may be missing. Equal values may be shown once.
System: not listed separately
Assay: physchem
Settings: octanol/water
Description: Octanol-water partition coefficient, log P of the compound

| SMILES | logP |
| --- | --- |
| CCCCC/C=C\C/C=C\C/C=C\C/C=C\CCCC(=O)O [ARACHIDONIC ACID] | 2.9 |

Same assay, conditions: octanol/water, logP

| SMILES | logP |
| --- | --- |
| CC/C=C\C/C=C\C/C=C\CCCCCCCCCC(=O)O | 3.3 |
| CCCCCCCC/C=C\CCCCCCCC(=O)O [OLEIC ACID] | 3.54 |
| CC/C=C\C/C=C\C/C=C\CCCCCCCC(=O)O [LINOLENIC ACID] | 2.51 |
| CC/C=C\C/C=C\C/C=C\C/C=C\C/C=C\CCCC(=O)O [ICOSAPENT] | 2.48 |
| CCCCC/C=C\C/C=C\C/C=C\CCCCC(=O)O [GAMOLENIC ACID] | 2.55 |
| CCCCCC/C=C\CCCCCCCC(=O)O [PALMITOLEIC ACID] | 2.73 |

Further lines, results first:

| logP | SMILES |
| --- | --- |
| 2.41 | CCCCC/C=C\C/C=C\CCCCCCCCCC(=O)O |
| 3.99 | CCCCCC/C=C\CCCCCCCc1cccc(O)c1C(=O)O [GINGKOLIC ACID] |
| 3 | CCCCC/C=C\C/C=C\CCCCCCCC(=O)O [LINOLEIC ACID] |
| 3.72 | CCCCC/C=C\C/C=C\CCCCCCCc1cccc(O)c1C(=O)O |
| 3.5 | CCCCC/C=C\C/C=C\C/C=C\CCCCCCC(=O)O [DIHOMO-GAMMA-LINOLENIC ACID] |

Molecular target: Coagulation factor VII/tissue factor (Homo sapiens, UniProt P08709)
Assay: not given
Settings: not given

Chain of Coagulation factor VII/tissue factor (P08709 61-212 limits assumed): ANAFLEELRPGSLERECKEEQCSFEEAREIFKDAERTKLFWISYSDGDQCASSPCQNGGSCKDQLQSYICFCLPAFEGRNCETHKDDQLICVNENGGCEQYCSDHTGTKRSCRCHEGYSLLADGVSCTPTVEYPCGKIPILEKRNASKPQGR
Chain of Coagulation factor VII/tissue factor (P08709 213-466 limits assumed): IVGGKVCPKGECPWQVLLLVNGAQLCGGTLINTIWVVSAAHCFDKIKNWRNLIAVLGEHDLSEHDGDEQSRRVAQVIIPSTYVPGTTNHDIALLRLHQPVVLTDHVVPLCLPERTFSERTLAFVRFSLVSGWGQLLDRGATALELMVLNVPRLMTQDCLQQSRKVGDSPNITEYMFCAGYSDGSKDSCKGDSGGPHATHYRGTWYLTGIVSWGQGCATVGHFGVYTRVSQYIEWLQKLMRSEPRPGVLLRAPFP
Chain of Coagulation factor VII/tissue factor (P13726 33-295 partner limits assumed): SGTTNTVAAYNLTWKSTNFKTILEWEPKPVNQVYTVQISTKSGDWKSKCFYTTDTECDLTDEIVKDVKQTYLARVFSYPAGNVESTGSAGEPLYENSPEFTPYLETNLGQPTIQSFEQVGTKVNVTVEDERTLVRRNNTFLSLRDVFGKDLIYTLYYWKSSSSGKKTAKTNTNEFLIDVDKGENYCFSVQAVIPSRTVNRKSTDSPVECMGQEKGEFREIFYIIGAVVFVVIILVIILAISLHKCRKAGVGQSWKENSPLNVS

| SMILES | pIC50 |
| --- | --- |
| CC/C=C\C/C=C\C/C=C\CCCCCCCCCC(=O)O | 4.00 |
| CCCCC/C=C\C/C=C\C/C=C\C/C=C\CCCC(=O)O [ARACHIDONIC ACID] | 3.98 |
| CCCCCCCC/C=C\CCCCCCCC(=O)O [OLEIC ACID] | 4.10 |
| CC/C=C\C/C=C\C/C=C\CCCCCCCC(=O)O [LINOLENIC ACID] | 4.52 |
| CC/C=C\C/C=C\C/C=C\C/C=C\C/C=C\CCCC(=O)O [ICOSAPENT] | 4.11 |
| CCCC/C=C\CCCCCCCC(=O)O [MYRISTOLEIC ACID] | 4.18 |
| CCCCC/C=C\C/C=C\C/C=C\CCCCC(=O)O [GAMOLENIC ACID] | 4.52 |
| CCCCCC/C=C\CCCCCCCC(=O)O [PALMITOLEIC ACID] | 3.92 |

Other lines, results leading:

| pIC50 | SMILES |
| --- | --- |
| 4.28 | CCCCC/C=C\C/C=C\CCCCCCCCCC(=O)O |
| 4.49 | CCCCCC/C=C\CCCCCCCc1cccc(O)c1C(=O)O [GINGKOLIC ACID] |
| 4.39 | CCCCC/C=C\C/C=C\CCCCCCCC(=O)O [LINOLEIC ACID] |
| 4.48 | CCCCC/C=C\C/C=C\CCCCCCCc1cccc(O)c1C(=O)O |
| 4.12 and 4.52 | CCCCC/C=C\C/C=C\C/C=C\CCCCCCC(=O)O [DIHOMO-GAMMA-LINOLENIC ACID] |

Molecular target: T1, Trypsin (Sus scrofa, UniProt P00761)
Assay: not given
Settings: not given

T1 sequence (P00761 whole entry): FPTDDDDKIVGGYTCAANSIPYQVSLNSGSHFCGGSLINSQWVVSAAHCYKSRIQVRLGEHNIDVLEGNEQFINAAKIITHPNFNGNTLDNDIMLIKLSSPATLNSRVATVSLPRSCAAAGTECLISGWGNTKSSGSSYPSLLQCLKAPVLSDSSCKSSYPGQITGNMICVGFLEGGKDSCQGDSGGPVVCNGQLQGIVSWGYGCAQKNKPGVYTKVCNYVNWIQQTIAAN

| SMILES | pIC50 |
| --- | --- |
| CCCCC/C=C\C/C=C\C/C=C\CCCCCCC(=O)O [DIHOMO-GAMMA-LINOLENIC ACID] | < 3.70 |

Molecular target: T1, Trypsin
Assay: not given
Settings: not given
Remark: another data set of the same source

| SMILES | pIC50 |
| --- | --- |
| CC/C=C\C/C=C\C/C=C\CCCCCCCCCC(=O)O | < 3.70 |
| CCCCC/C=C\C/C=C\C/C=C\C/C=C\CCCC(=O)O [ARACHIDONIC ACID] | < 3.70 |
| CCCCCCCC/C=C\CCCCCCCC(=O)O [OLEIC ACID] | < 3.70 |
| CC/C=C\C/C=C\C/C=C\CCCCCCCC(=O)O [LINOLENIC ACID] | < 3.70 |
| CC/C=C\C/C=C\C/C=C\C/C=C\C/C=C\CCCC(=O)O [ICOSAPENT] | < 3.70 |
| CCCC/C=C\CCCCCCCC(=O)O [MYRISTOLEIC ACID] | < 3.70 |
| CCCCC/C=C\C/C=C\C/C=C\CCCCC(=O)O [GAMOLENIC ACID] | < 3.70 |
| CCCCCC/C=C\CCCCCCCC(=O)O [PALMITOLEIC ACID] | < 3.70 |

The next lines start with the values.

| pIC50 | SMILES |
| --- | --- |
| < 3.70 | CCCCC/C=C\C/C=C\CCCCCCCCCC(=O)O |
| < 3.70 | CCCCCC/C=C\CCCCCCCc1cccc(O)c1C(=O)O [GINGKOLIC ACID] |
| < 3.70 | CCCCC/C=C\C/C=C\CCCCCCCC(=O)O [LINOLEIC ACID] |
| < 3.70 | CCCCC/C=C\C/C=C\CCCCCCCc1cccc(O)c1C(=O)O |
| < 3.70 | CCCCC/C=C\C/C=C\C/C=C\CCCCCCC(=O)O [DIHOMO-GAMMA-LINOLENIC ACID] |

System: not given
Assay: not given
Settings: octanol/water

| SMILES | logP |
| --- | --- |
| CCCCC/C=C\C/C=C\C/C=C\CCCCCCC(=O)O [DIHOMO-GAMMA-LINOLENIC ACID] | 3.28 |

Source: ChEMBL document CHEMBL1151306, “Inhibitory activity of unsaturated fatty acids and anacardic acids toward soluble tissue factor-factor VIIa complex” (J Nat Prod, 1998)
